Results: patent publication US20100129800A1, “POLYMERS AND THEIR USE AS FLUORESCENT LABELS” (priority 2007, published 2010)
Ends that are not written are not given here. Nct = N-((2S,3R)-1,3-dihydroxybutan-2-yl)-(4a,10a-dihydro-10,11-diazabenzo[b]fluoren-10-yl)acetamide monomer; Qut = N-(1,3-dihydroxybutan-2-yl)-10H-indolo[3,2-d]quinoline-11-carboxamide monomer; Pht = N-((2S,3R)-1,3-dihydroxybutan-2-yl)-2-phenylquinoline-4-carboxamide monomer; Act = N-(1,3-dihydroxybutan-2-yl)acridine-9-carboxamide monomer; code p = not defined here; Agt = not defined here; Qgt = not defined here

Experiments:
Format in all cases: physicochemical
[1] = tested on: duplex structure of DNA; test: Melting experiments (DNA-duplex stabilization); conditions: 1 M NaCl, 10 mM sodium phosphate buffer of pH=7; for Tm(° C.): 260 nm, 1° C./min; for ΔTm (° C.): versus unmodified oligonucleotide
Experimental: Appropriate oligonucleotides were dissolved in a solution containing 1 M NaCl, 10 mM sodium phosphate buffer of pH=7. UV Absorption spectra and melting experiments (absorbance vs temperature) were recorded in 1-cm path length cell by using a spectrophotometer, with a temperature controller and a programmed temperature increase rate of 1° C./min. Melting curves were recorded at 260 nm, and melting temperatures were measured at the maximum of the first derivatives of the melting curves.

[2] = Fluorescent properties of duplexes carrying fluorophores at the 3′-end; conditions: oligonucleotide duplex carrying fluorophore at the 3′-end
Experimental: Solid supports carrying oligomers with L-threoninol and 3-aminopropan-1,2-diol backbones were introduced on a DNA synthesizer and oligonucleotides were assembled using standard protocols. After the assembly of the desired DNA sequence, supports were treated with concentrated ammonia at 55° C. for a minimum of 6 hrs yielding oligonucleotides carrying oligomers of fluorophores at the 3′-end.
Two oligonucleotide sequences were synthetized (sequence 1: 5′-[…]-3′ sequence 2: 5′-[…]-3′) carrying different fluorophores at the 3′-end. Solid supports containing dimer and trimer fluorophores (prepared in examples 28-31) and standard protocols for oligonucleotide synthesis were used in order to obtain these modified oligonucleotides (Table 2). Ammonia deprotection was performed at 55° C. for 6 hours. The resulting solutions were concentrated to dryness. Then, the residue was dissolved in water and desalted through a NAP-10 column. Fractions containing oligonucleotides were analysed by HPLC and characterized by UV and MS spectrometry.
Next, the fluorescent properties of duplexes carrying fluorophores at the 3′-end was determined and the results are shown in Table 3: […]

[3] = Fluorescence properties of the new compounds (excitation and emission wavelengths); conditions: free compound

| Compound | Fluorescence Excitation (nm) [3] [nm] | Fluorescence emission (nm) [3] [nm] | Tm(° C.) [1] [°C] | ΔTm (° C.) [1] | Emission (nm) [2] [nm] | Excitation (nm) [2] [nm] |
| --- | --- | --- | --- | --- | --- | --- |
| TTCCGGAA-p-Act: oligonucleotide 5′-TTCCGGAA-3′ carrying fluorophore Act at the 3′-end (DNA TTCCGGAA-{code p-Act}; not fully specified; cysteine pairing not given here; reading uncertain; also: DNA oligonucleotide with 3'-phosphate-linked Act) |  |  | 47 | +12 °C |  |  |
| TTCCGGAA-p-Qgt: oligonucleotide 5′-TTCCGGAA-3′ carrying fluorophore Qgt at the 3′-end (DNA TTCCGGAA-{code p-Qgt}; not fully specified; cysteine pairing not given here; reading uncertain; also: DNA oligonucleotide with 3'-phosphate-linked Qgt) |  |  | 50 | +15 °C | 491 | 350 |
| TTCCGGAA-p-Qut-p-Qut: oligonucleotide 5′-TTCCGGAA-3′ carrying dimer Qut-p-Qut at the 3′-end (DNA TTCCGGAA-{code p-Qut-code p-Qut}; not fully specified; cysteine pairing not given here; reading uncertain; also: DNA oligonucleotide with 3'-Qut-p-Qut dimer) |  |  | 48 | +13 °C | 490 | 349 |
| TTCCGGAA-p-Pht: oligonucleotide 5′-TTCCGGAA-3′ carrying fluorophore Pht at the 3′-end (DNA TTCCGGAA-{code p-Pht}; not fully specified; cysteine pairing not given here; reading uncertain; also: DNA oligonucleotide with 3'-phosphate-linked Pht) |  |  | 41 | +6 °C |  |  |
| TTCCGGAA-p-Act-p-Qut-p-Nct: oligonucleotide 5′-TTCCGGAA-3′ carrying trimer Act-p-Qut-p-Nct at the 3′-end (DNA TTCCGGAA-{code p-Act-code p-Qut-code p-Nct}; not fully specified; cysteine pairing not given here; reading uncertain; also: DNA oligonucleotide with 3'-Act-p-Qut-p-Nct trimer) |  |  | 60 | +25 °C |  |  |
| CC(=O)NCCN(CC(=O)NCCN(CC(=O)NCCCCCCO)C(=O)CNC(=O)c1c2ccccc2nc2ccccc12)C(=O)CNC(=O)c1c2ccccc2nc2ccccc12 [Example 46] | 248 | 441 |  |  |  |  |
| TTCCGGAA-p-Agt: oligonucleotide 5′-TTCCGGAA-3′ carrying fluorophore Agt at the 3′-end (DNA TTCCGGAA-{code p-Agt}; not fully specified; cysteine pairing not given here; reading uncertain; also: DNA oligonucleotide with 3'-phosphate-linked Agt) |  |  | 47 | +12 °C |  |  |
| CC(OP(O)(=S)OC[C@@H](O)CNc1c2nc3ccccc3c-2n(C)c2ccccc12)C(CO)NC(=O)c1c2ccccc2nc2ccccc12 (stereo partly drawn) [Example 32, O-{2-N-(Acridine-9-carbamoyl)-(1-hydroxybut-3-yl)} and O-}3-(5-methyl-5H-indolo[3,2b]quinolin-11-ylamino-(S)-(2-hydroxyprop-3-yl} phosphorotioate] | 359 | 448 |  |  |  |  |

Second part, led by results:

| Fluorescence Excitation (nm) [3] [nm] | Fluorescence emission (nm) [3] [nm] | Compound | Tm(° C.) [1] [°C] | ΔTm (° C.) [1] | Emission (nm) [2] [nm] | Excitation (nm) [2] [nm] |
| --- | --- | --- | --- | --- | --- | --- |
| 269 | 432 | CC(=O)NC1CC(C(=O)NC2CC(C(=O)NC3CC(C(=O)NC4CC(C(=O)NC5CC(C(=O)NC6CC(C(=O)NC7CC(C(N)=O)N(C(=O)CNC(=O)c8cc(-c9ccccc9)nc9ccccc89)C7)N(C(C)=O)C6)N(C(C)=O)C5)N(C(=O)CNC(=O)c5c6ccccc6nc6ccccc56)C4)N(C(C)=O)C3)N(C(C)=O)C2)N(C(=O)CNC(=O)c2c3ccccc3nc3c2[nH]c2ccccc23)C1 (stereo not shown) [Example 66, N^4-Acetyl-4-amino-{2-(10H-indolo[3,2-b]quinoline-11-carboxamide)acetyl}prolinyl-4-aminoprolinyl-4-aminoprolinyl-4-amino-{2-(acridine-9-carboxamide)acetyl}prolinyl-4-aminoprolinyl-4-aminoprolinyl-4-amino-[(2-phenyl-quinoline-4-carboxamide)acetyl]prolinamide] |  |  |  |  |
| 282 | 439 | CC(=O)NC1CC(C(N)=O)N(C(=O)CNC(=O)c2c3ccccc3nc3ccccc23)C1 (stereo not shown) [Example 50, N-[2-(Acridine-9-carboxamide)acetyl]-4-N-acetamidoprolinamide] |  |  |  |  |
| 346 | 495 | CC(O)C(COP(=O)(O)OC(C)C(CO)NC(=O)c1c2ccccc2nc2c1[nH]c1ccccc12)NC(=O)c1c2ccccc2nc2c1[nH]c1ccccc12 (stereo not shown) [Example 28, O-{2-N-(10H-indolo[3,2-d]quinoline-11-carbamoyl)-(1-hydroxybut-3-yl)} and O-(2-N-{10H-indolo[3,2-d]quinoline-11-carbamoyl}-3-hydroxybut-1-yl)phosphate] |  |  |  |  |
| 252 | 437 | CC(O)C(COP(=O)(O)OC(C)C(CO)NC(=O)c1cc(-c2ccccc2)nc2ccccc12)NC(=O)c1c2ccccc2nc2ccccc12 (stereo not shown) [Example 34, O-{2-N-(2-phenylquinoline-4-carbamoyl-1-hydroxybutan-3-yl)} and O-{2-N-(acridine-9-carbamoyl)-3-hydroxybut-1-yl} phosphate] |  |  |  |  |
| 309 | 456 | CC(=O)N[C@H]1C[C@@H](C(=O)N[C@H]2C[C@@H](C(=O)N[C@H]3C[C@@H](C(N)=O)N(C(=O)CNC(=O)c4c5ccccc5nc5ccccc45)C3)N(C(=O)CNC(=O)c3c4ccccc4nc4ccccc34)C2)N(C(=O)CNC(=O)c2c3ccccc3nc3c2[nH]c2ccccc23)C1 [Example 60, N^4-Acetyl-4-amino-{2-(10H-indolo[3,2-b]quinoline-11-carboxamide)acetyl}prolinyl-4-amino-{2-(acridine-9-carboxamide)acetyl}prolinyl-4-amino-{2-(acridine-9-carboxamide)acetyl}prolinamide] |  |  |  |  |
| 357 | 441 | CC(=O)N[C@@H](CCCNC(=O)CNC(=O)c1c2ccccc2nc2ccccc12)C(=O)N[C@@H](CCCNC(=O)CNC(=O)c1c2ccccc2nc2c1[nH]c1ccccc12)C(=O)N[C@@H](CCCNC(=O)CNC(=O)c1c2ccccc2nc2ccccc12)C(N)=O [Example 69, N^4-Acetyl-5-N-{2-(acridine-9-carboxamide)acetyl}ornithinyl-5-N-{2-(10H-indolo[3,2-b]quinoline-11-carboxamide)acetyl}ornithinyl-5-N-{2-(acridine-9-carboxamide)acetyl}ornithinamide] |  |  |  |  |
| 353 | 441 | CC(OP(=O)(O)OCC(O)CNc1c2nc3ccccc3c-2n(C)c2ccccc12)C(CO)NC(=O)c1c2ccccc2nc2ccccc12 [Example 31, O-{2-N-(Acridine-9-carbamoyl)-(1-hydroxybut-3-yl)} and O-{3-(5-methyl-5H-indolo[3,2b]quinolin-11-ylamino-(S)-(2-hydroxyprop-3-yl} phosphate] |  |  |  |  |
| 275 | 476 | CC(OP(=O)(O)OCC(O)CNc1c2nc3ccccc3c-2n(C)c2ccccc12)C(CO)NC(=O)c1c2ccccc2nc2c1[nH]c1ccccc12 [Example 41, O-{2-N-(10H-indolo[3,2-d]quinoline-11-carbamoyl)-3-oxybut-1-yl} phosphate (3-1) O-{3-(5-methyl-5H-indolo[3,2-b]quinolin-11-ylamino-(S)-(2hydroxylprop-3-yl)] |  |  |  |  |
| 275 | 503 | CC(=O)NC1CC(C(=O)NC2CC(C(=O)NC3CC(C(N)=O)N(C(=O)CNC(=O)c4c5ccccc5nc5ccccc45)C3)N(C(=O)CNC(=O)c3c4ccccc4nc4c3[nH]c3ccccc34)C2)N(C(=O)CNC(=O)c2c3ccccc3nc3ccccc23)C1 (stereo not shown) [Example 58, N^4-Acetyl-4-amino-{2-(acridine-9-carboxamide)acetyl}prolinyl-4-amino-{2-(10H-indolo[3,2-b]quinoline-11-carboxamide)acetyl}proliny-4-amino-{2-(acridine-9-carboxamide)acetyl}prolinamide] |  |  |  |  |
| 340 | 469 | Cn1c2c3ccccc3nc-2c(NC[C@H](O)CO)c2ccccc21 [Compound 5b, (S)-3-(5-Methyl-5H-indolo[3,2b]quinolin-11-ylamino)propane-1,2-diol] |  |  |  |  |
